{"source": "patent US9557333B2", "about": "“Methods of treating gastrointestinal sarcoma patients depending on their sB7H6 serum level” (INSTITUT GUSTAVE ROUSSY, priority 2012, dated 2017)", "key": {"[1]": {"test_system": "sMIC", "assay": "Serum sMIC measured by ELISA longitudinally during IM treatment of GIST patients", "assay_type": "in vivo, human", "conditions": "followed during treatment", "protocol": "49 GIST patients were treated with imatinib (IM) from May 1994 until October 2010 (BFR14 cohort). Patients' samples were provided by the Gustave Roussy Institute (Villejuif, France) and the Centre Léon Bérard (Lyon). Sera were drained from blood drawn during control visits. Clinical responses were assessed by computed tomography (CT) scan and the responses were classified according to the RECIST criteria. GIST tumor samples were obtained following surgery carried out at the Gustave Roussy Institute (Villejuif, France).\n(§1) sB7H6 and sMIC were assessed from the sera of patients by the ELISA method."}, "[2]": {"test_system": "sB7H6", "assay": "Serum sB7H6 measured by ELISA longitudinally during IM treatment of GIST patients", "assay_type": "in vivo, human", "protocol": "49 GIST patients were treated with imatinib (IM) from May 1994 until October 2010 (BFR14 cohort). Patients' samples were provided by the Gustave Roussy Institute (Villejuif, France) and the Centre Léon Bérard (Lyon). Sera were drained from blood drawn during control visits. Clinical responses were assessed by computed tomography (CT) scan and the responses were classified according to the RECIST criteria.\nas §1\nSoluble B7-H6 detection was assessed from sera of patients by the ELISA method: 17B1.3 mAbs was coated at 5 μg/ml in 0.1 M NaHCO3 solution overnight at 4° C. in 96-well Nunc-Immuno™ plates (Thermo Scientific). Blocking solution (PBS supplemented with 3% BSA) was then added overnight at 4° C. After discarding this solution, serial dilutions of sB7-H6 were incubated for 3 hours at room temperature. Then biotin-conjugated 9G9.2 was added to each well (1 μg/ml in PBS supplemented with 1% BSA) for 1 hour at room temperature. Anti-biotin HRP (Sigma-Aldrich) was then added for 1 hour at room temperature. Finally, BD Optia TMB substrate (BD Biosciences) was used to reveal the staining and left to incubate for 15-30 minutes at room temperature. The reaction was stopped with 1 M HCl and the optic density (OD) at 450 nm was read with Apollo LB 911 from Berthold."}}}
{"smiles": "Cc1ccc(NC(=O)c2ccc(CN3CCN(C)CC3)cc2)cc1Nc1nccc(-c2cccnc2)n1", "note": "[IM, imatinib]", "values": [{"measurement": "levels of sMIC in sera following IM treatment", "setting": "[1]", "result": "tend to decrease"}, {"measurement": "levels of sB7H6 in sera after 1 year of IM treatment", "setting": "[2]; after 1 year of treatment", "result": "not detected"}, {"measurement": "levels of sB7H6 in sera during IM treatment", "setting": "[2]; followed with time of treatment", "result": "decreased with the time of treatment"}]}
